Key:
recombinant Plk1 = recombinant Plk1 (Homo sapiens, UniProt P53350); assay: In Vitro Plk1 Enzyme Assay (SPA, GST-Cdc25C phosphorylation); type: biochemical; settings: ATP 64 nM, 90 minutes, read-out: IC50 (Plk1 enzyme inhibition)
[1] = system: human colon tumour cell line HT29; assay: Cellular Assay (phosphohistone H3 Ser10 mitotic marker, HT29); type: cell-based; settings: HT-29, 24 h, HT29 cells, read-out: IC50 (cellular assay, phosphohistone H3)

Sequence of recombinant Plk1 (P53350 whole entry): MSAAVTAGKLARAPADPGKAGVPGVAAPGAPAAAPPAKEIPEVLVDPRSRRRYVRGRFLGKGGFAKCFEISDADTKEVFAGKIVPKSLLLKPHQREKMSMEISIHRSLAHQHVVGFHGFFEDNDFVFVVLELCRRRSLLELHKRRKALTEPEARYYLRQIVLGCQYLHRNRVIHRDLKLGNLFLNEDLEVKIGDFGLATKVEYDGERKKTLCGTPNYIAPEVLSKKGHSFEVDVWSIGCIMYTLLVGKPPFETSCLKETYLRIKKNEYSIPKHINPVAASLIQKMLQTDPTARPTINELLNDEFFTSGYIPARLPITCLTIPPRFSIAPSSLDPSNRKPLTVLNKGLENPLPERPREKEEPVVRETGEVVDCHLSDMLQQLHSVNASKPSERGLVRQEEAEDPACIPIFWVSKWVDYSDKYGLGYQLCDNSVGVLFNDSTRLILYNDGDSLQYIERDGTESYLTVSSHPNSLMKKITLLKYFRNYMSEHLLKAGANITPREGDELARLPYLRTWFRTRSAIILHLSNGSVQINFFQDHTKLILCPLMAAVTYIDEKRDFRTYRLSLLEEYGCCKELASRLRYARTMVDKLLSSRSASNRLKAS

| IC50 (recombinant Plk1) [nM] | IC50 [1] [nM] | Compound |
| --- | --- | --- |
| < 1000 | < 300 | COc1cc(C(=O)NC2CCCCC2)ccc1Nc1ncc2c(n1)N(C1CCCC1)CCC(=O)N2C [Example 90, N-cyclohexyl-4-[(6-cyclopentyl-2-methyl-3-oxo-2,6,8,10-tetrazabicyclo[5.4.0]undeca-8,10,12-trien-9-yl)amino]-3-methoxy-benzamide] |
| < 300 | < 300 | COc1cc(C(=O)N[C@H]2CCN(C)C2)ccc1Nc1ncc2c(n1)N(C1CCCC1)CCC(=O)N2C [Example 63, 4-[(6-cyclopentyl-2-methyl-3-oxo-2,6,8,10-tetrazabicyclo[5.4.0]undeca-8,10,12-trien-9-yl)amino]-3-methoxy-N-[(3S)-1-methylpyrrolidin-3-yl]benzamide] |
| < 300 | < 300 | COc1cc(C(=O)NCC2CCCN(C)C2)ccc1Nc1ncc2c(n1)N(C1CCCC1)CCC(=O)N2C (centres unmarked) [Example 84, 4-[(6-cyclopentyl-2-methyl-3-oxo-2,6,8,10-tetrazabicyclo[5.4.0]undeca-8,10,12-trien-9-yl)amino]-3-methoxy-N-[(1-methyl-3-piperidyl)methyl]benzamide] |
| < 300 | < 300 | COc1cc(C(=O)NC2CCN(C)CC2)ccc1Nc1ncc2c(n1)N(C1CCCC1)CC(C)(C)C(=O)N2C [Example 235, 4-[(2-cyclopentyl-4,4,6-trimethyl-5-oxo-2,6,9,11-tetrazabicyclo[5.4.0]undeca-7,9,11-trien-10-yl)amino]-3-methoxy-N-(1-methyl-4-piperidyl)benzamide] |
| < 300 | < 30000 | CN1CCC(NC(=O)c2ccc(Nc3ncc4c(n3)N(C3CCCC3)CCC(=O)N4C)c(O)c2)CC1 [Example 186, 4-[(6-cyclopentyl-2-methyl-3-oxo-2,6,8,10-tetrazabicyclo[5.4.0]undeca-8,10,12-trien-9-yl)amino]-3-hydroxy-N-(1-methyl-4-piperidyl)benzamide] |
| < 300 | < 300 | CN1CCC(NC(=O)c2cc(Cl)c(Nc3ncc4c(n3)N(C3CCCC3)CCC(=O)N4C)cc2F)CC1 [Example 322, 5-chloro-4-[(2-cyclopentyl-6-methyl-5-oxo-2,6,9,11-tetrazabicyclo[5.4.0]undeca-7,9,11-trien-10-yl)amino]-2-fluoro-N-(1-methyl-4-piperidyl)benzamide] |
| < 300 | < 300 | CCCN1CC[C@@H](NC(=O)c2ccc(Nc3ncc4c(n3)N(C3CCCC3)CCC(=O)N4C)c(OC)c2)C1 [Example 327, 4-[(2-cyclopentyl-6-methyl-5-oxo-2,6,9,11-tetrazabicyclo[5.4.0]undeca-7,9,11-trien-10-yl)amino]-3-methoxy-N-[(3R)-1-propylpyrrolidin-3-yl]benzamide] |
| < 300 | < 300 | CCN1CC[C@@H](NC(=O)c2ccc(Nc3ncc4c(n3)N(C3CCCC3)CCC(=O)N4C)c(OC)c2)C1 [Example 326, 4-[(2-cyclopentyl-6-methyl-5-oxo-2,6,9,11-tetrazabicyclo[5.4.0]undeca-7,9,11-trien-10-yl)amino]-N-[(3R)-1-ethylpyrrolidin-3-yl]-3-methoxy-benzamide] |

More lines, now with the values behind:

| Compound | IC50 (recombinant Plk1) [nM] | IC50 [1] [nM] |
| --- | --- | --- |
| CN1CCC(NC(=O)c2ccc(Nc3ncc4c(n3)N(C3CCCC3)CC(C)(C)C(=O)N4C)cc2)CC1 [Example 245, 4-[(2-cyclopentyl-4,4,6-trimethyl-5-oxo-2,6,9,11-tetrazabicyclo[5.4.0]undeca-7,9,11-trien-10-yl)amino]-N-(1-methyl-4-piperidyl)benzamide] | < 300 | < 300 |
| COc1cc(NCCN(C)C)ccc1Nc1ncc2c(n1)N(C1CCCC1)CCC(=O)N2C [Example 107, 6-cyclopentyl-9-[[4-(2-dimethylaminoethylamino)-2-methoxy-phenyl]amino]-2-methyl-2,6,8,10-tetrazabicyclo[5.4.0]undeca-8,10,12-trien-3-one] | < 1000 | < 30000 |
| COc1cc(C(=O)NCCCNc2ccccn2)ccc1Nc1ncc2c(n1)N(C1CCCC1)CCC(=O)N2C [Example 38, 4-[(6-cyclopentyl-2-methyl-3-oxo-2,6,8,10-tetrazabicyclo[5.4.0]undeca-8,10,12-trien-9-yl)amino]-3-methoxy-N-[3-(pyridin-2-ylamino)propyl]benzamide] | < 1000 | < 300 |
| CC(=O)N1CCc2cc(Nc3ncc4c(n3)N(C3CCCC3)CCC(=O)N4C)ccc21 [Example 124, 9-[(1-acetyl-2,3-dihydroindol-5-yl)amino]-6-cyclopentyl-2-methyl-2,6,8,10-tetrazabicyclo[5.4.0]undeca-8,10,12-trien-3-one] | < 1000 | < 30000 |
| COc1cc(C(=O)NCCCCn2ccnc2)ccc1Nc1ncc2c(n1)N(C1CCCC1)CCC(=O)N2C [Example 31, 4-[(6-cyclopentyl-2-methyl-3-oxo-2,6,8,10-tetrazabicyclo[5.4.0]undeca-8,10,12-trien-9-yl)amino]-N-(4-imidazol-1-ylbutyl)-3-methoxy-benzamide] | < 1000 | < 300 |
| COc1cc(N2CCCN(C)CC2)ccc1Nc1ncc2c(n1)N(C1CCCC1)CCC(=O)N2C [Example 109, 6-cyclopentyl-9-[[2-methoxy-4-(4-methyl-1,4-diazepan-1-yl)phenyl]amino]-2-methyl-2,6,8,10-tetrazabicyclo[5.4.0]undeca-8,10,12-trien-3-one] | < 1000 | < 300 |
| COc1cc(C(=O)NC2CCN(C)CC2)ccc1Nc1ncc2c(n1)N(Cc1ccccc1)CCC(=O)N2C [Example 215, 4-[(6-benzyl-2-methyl-3-oxo-2,6,8,10-tetrazabicyclo[5.4.0]undeca-8,10,12-trien-9-yl)amino]-3-methoxy-N-(1-methyl-4-piperidyl)benzamide] | < 1000 | < 30000 |
| CN1C(=O)CCN(C2CCCC2)c2nc(Nc3cccc(CO)c3)ncc21 [Example 173, 6-cyclopentyl-9-[[3-(hydroxymethyl)phenyl]amino]-2-methyl-2,6,8,10-tetrazabicyclo[5.4.0]undeca-8,10,12-trien-3-one] | < 1000 | < 30000 |
| COc1cc(N(C)C2CCN(C)CC2)ccc1Nc1ncc2c(n1)N(C1CCCC1)CCC(=O)N2C [Example 104, 6-cyclopentyl-9-[[2-methoxy-4-[methyl-(1-methyl-4-piperidyl)amino]phenyl]amino]-2-methyl-2,6,8,10-tetrazabicyclo[5.4.0]undeca-8,10,12-trien-3-one] | < 300 | < 1000 |
| CN1C(=O)CCN(C2CCCC2)c2nc(Nc3cccc(S(N)(=O)=O)c3)ncc21 [Example 170, 3-[(6-cyclopentyl-2-methyl-3-oxo-2,6,8,10-tetrazabicyclo[5.4.0]undeca-8,10,12-trien-9-yl)amino]benzenesulfonamide] | < 300 | < 30000 |
| COc1cc(C(=O)N[C@H]2[C@@H]3CN(C(=O)OCc4ccccc4)C[C@@H]32)ccc1Nc1ncc2c(n1)N(C1CCCC1)CCC(=O)N2C [Example 51, Benzyl(1S,5R)-6-[[4-[(6-cyclopentyl-2-methyl-3-oxo-2,6,8,10-tetrazabicyclo[5.4.0]undeca-8,10,12-trien-9-yl)amino]-3-methoxy-benzoyl]amino]-3-azabicyclo[3.1.0]hexane-3-carboxylate] | < 100000 | < 1000 |

From patent US7709471B2, “Compounds” (AstraZeneca AB, priority 2006, dated 2010)
